BindingDB's records for doi:10.1021/jm00391a020 (1987)

Assay: Kinetic constant for galactosyltransferase inhibition was determined

Ki	SMILES
165 µM	O=c1ccn(C2O[C@H](COP(=O)(O)OP(=O)(O)C3O[C@H](CO)[C@@H](O)[C@H](O)[C@H]3O)[C@@H](O)[C@H]2O)c(=O)[nH]1 (some centres not stated)
128 µM	O=c1ccn([C@@H]2O[C@H](COP(=O)(O)OP(=O)(O)OP(=O)(O)O)[C@@H](O)[C@H]2O)c(=O)[nH]1 [uridine 5'-(tetrahydrogen triphosphate)]
